Test systems include NCI/ADR-RES; HCT-15; T47D; M14; NCI-H226; SK-MEL-2; SF-539; HT-29; OVCAR-5; EKVX; SN12C; OVCAR-4; MDA-MB-435; U-251; COLO 205; IGROV-1; SR; HCC 2998.
What all share (assay): NCI-60 cell line screen, 48 h

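Test compounds were applied to cells in 96-well plates for 48 hours at 5 doses. GI50 marks 50% less growth.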 Active and inactive are the calls of the source. No stated cut-off is given here; in the data, active = GI50 up to about 1.1 µM and inactive = higher. Bounds are passed on as bounds.

These results are taken from ChEMBL document CHEMBL1201862, “PubChem BioAssay data set” (2004).

On to `O=C(O)C(Cc1ccc(O)c([N+](=O)[O-])c1)N1C(=O)c2ccccc2C1=O` (stereo not given), for which the GI50 with NCI/ADR-RES was > 100 µM (inactive); with HCT-15, more than 100 µM; in the assay on T47D, > 100 µM (inactive); with M14, > 100 µM (inactive); in the assay on NCI-H226, > 100 µM (inactive); in the assay on SK-MEL-2 it was > 100 µM (inactive). Further, the GI50 in the assay on SF-539, in the assay on HT-29, in the assay with OVCAR-5, in the assay on EKVX, in the assay on SN12C and in the assay on OVCAR-4 was > 100 µM (inactive) each time. The GI50 with MDA-MB-435, with U-251, with COLO 205, with IGROV-1 and with SR was > 100 µM (inactive) throughout.
As to `C/C1=C/C(C)CC(C)OC(=O)C(C)NC(=O)C(Cc2ccc(O)c(I)c2)N(C)C(=O)CNC(=O)C(C)C1` (stereo not given), the GI50 is 0.0313 µM (active) in the assay on NCI/ADR-RES; less than 0.0121 µM in the assay with HCT-15; 0.229 µM (active) in the assay on T47D; 0.0102 µM (active) in the assay with M14; < 0.01 µM (active) in the assay on HCC 2998; < 0.01 µM (active) in the assay with SF-539. Moreover, the GI50 in the assay with HT-29 is < 0.01 µM (active); with OVCAR-5, 8.81 µM (inactive); in the assay on EKVX, 0.0443 µM (active); in the assay on SN12C it was 0.0342 µM (active); with OVCAR-4, < 0.01 µM (active); in the assay on MDA-MB-435, < 0.01 µM (active). Moreover, the GI50 in the assay with U-251, in the assay with COLO 205, in the assay on IGROV-1 and in the assay with SR was < 0.01 µM (active) in each case.
As to `CC(=O)OCC1OC(N2C(=O)NC(=O)C3C=C4CCCCC4=CC32)CC1OC(C)=O` (stereo not given), the GI50 with NCI/ADR-RES was > 100 µM (inactive); in the assay with HCT-15 it was more than 100 µM; with T47D it was > 100 µM (inactive); in the assay on M14, > 100 µM (inactive); in the assay with NCI-H226 it was > 100 µM (inactive); in the assay with SK-MEL-2, > 100 µM (inactive). For the same molecule, the GI50 with SF-539, with HT-29, with OVCAR-5, in the assay on EKVX, in the assay on SN12C and in the assay with OVCAR-4 was > 100 µM (inactive) in each case. Besides, the GI50 with MDA-MB-435, in the assay on U-251, with IGROV-1 and in the assay on SR was > 100 µM (inactive) throughout.
Turning to `C/C(=C\CNc1ncnc2c1ncn2CCC#N)CO`, the GI50 in the assay on NCI/ADR-RES, in the assay on T47D, in the assay on M14, with HCC 2998, in the assay on NCI-H226 and in the assay with SF-539 was > 100 µM (inactive) each time. The GI50 in the assay on HT-29, with OVCAR-5, in the assay on EKVX, in the assay with SN12C, with OVCAR-4 and with MDA-MB-435 was > 100 µM (inactive) throughout. The GI50 with COLO 205, with IGROV-1 and in the assay with SR was > 100 µM (inactive) throughout.
As to `Cc1ccc(C(=O)/C=C2\Nc3ccccc3N=C2NC23CC4CC(CC(C4)C2)C3)cc1`, the GI50 in the assay with NCI/ADR-RES was > 10 µM (inactive); in the assay on HCT-15 it was more than 10 µM; with T47D, > 10 µM (inactive); in the assay on M14, > 10 µM (inactive); in the assay on HCC 2998, > 10 µM (inactive); in the assay with SF-539, > 10 µM (inactive). The GI50 with HT-29 is > 10 µM (inactive); in the assay on OVCAR-5, > 10 µM (inactive); with SN12C it was > 10 µM (inactive); in the assay on OVCAR-4, 7.66 µM (inactive); with MDA-MB-435 it was > 10 µM (inactive); in the assay with U-251 it was > 10 µM (inactive). Further, the GI50 with COLO 205, with IGROV-1 and in the assay with SR was > 10 µM (inactive) throughout.
With `O=[N+]([O-])c1c2nc3n(c2cc2c1nc1n2CCC1)CCC3`, the GI50 is > 100 µM (inactive) with NCI/ADR-RES; more than 100 µM in the assay on HCT-15; > 100 µM (inactive) in the assay with T47D; > 100 µM (inactive) in the assay with M14; > 100 µM (inactive) in the assay on HCC 2998; > 100 µM (inactive) in the assay with NCI-H226. In addition, the GI50 in the assay with SF-539, with HT-29, with OVCAR-5, in the assay on EKVX, in the assay on SN12C and in the assay on OVCAR-4 was > 100 µM (inactive) each time. Further, the GI50 in the assay with MDA-MB-435, in the assay on U-251, in the assay with COLO 205, with IGROV-1 and with SR was > 100 µM (inactive) in each case.
On to `CCCCC(O)(c1ccccc1)C(O)(c1ccccc1)c1c(F)c(F)c(F)c(F)c1F` (stereo not given), for which the GI50 in the assay with NCI/ADR-RES was 19.5 µM (inactive); in the assay with HCT-15, 13.5 µM; in the assay on T47D, 35.4 µM (inactive); in the assay with M14, 30.3 µM (inactive); in the assay with HCC 2998 it was 15.7 µM (inactive); in the assay on NCI-H226, 26 µM (inactive). Further, the GI50 is 14.1 µM (inactive) in the assay on HT-29; 18.3 µM (inactive) in the assay on OVCAR-5; 17.9 µM (inactive) with EKVX; 17.1 µM (inactive) in the assay with SN12C; 44.4 µM (inactive) in the assay on OVCAR-4; 31.8 µM (inactive) in the assay on MDA-MB-435. The GI50 is 17.3 µM (inactive) in the assay on U-251, > 10 µM (inactive) in the assay with COLO 205, 33.3 µM (inactive) in the assay with IGROV-1 and 25.3 µM (inactive) in the assay with SR.
In the case of `c1ccc2c(c1)nc1ccccn12`, the GI50 with NCI/ADR-RES was > 100 µM (inactive); in the assay on HCT-15, more than 100 µM; in the assay on T47D it was > 100 µM (inactive); with M14 it was > 100 µM (inactive); in the assay on HCC 2998 it was > 100 µM (inactive); in the assay on NCI-H226 it was > 100 µM (inactive). In addition, the GI50 in the assay with SF-539, in the assay with HT-29, in the assay on OVCAR-5, in the assay on EKVX, in the assay on SN12C and in the assay with MDA-MB-435 was > 100 µM (inactive) each time. The GI50 in the assay with U-251, in the assay with COLO 205, with IGROV-1 and with SR was > 100 µM (inactive) in each case.
Consider `CCOC(=O)c1c2ccccc2n2c(=O)n(C)nnc12`, for which the GI50 with NCI/ADR-RES is > 100 µM (inactive); in the assay on HCT-15, more than 100 µM; with T47D, > 100 µM (inactive); in the assay with M14 it was > 100 µM (inactive); in the assay on HCC 2998, > 100 µM (inactive); in the assay with NCI-H226, > 100 µM (inactive). Moreover, the GI50 in the assay on SK-MEL-2 was > 100 µM (inactive); in the assay with SF-539, > 56.2 µM (inactive); with OVCAR-5, > 100 µM (inactive); with EKVX it was 99.8 µM (inactive); in the assay with SN12C, > 100 µM (inactive); in the assay on OVCAR-4, > 100 µM (inactive). Moreover, the GI50 is > 53.7 µM (inactive) with MDA-MB-435, > 89.1 µM (inactive) in the assay with U-251, > 100 µM (inactive) with COLO 205 and > 100 µM (inactive) in the assay with IGROV-1.
Regarding `COC(=O)C(Nc1ccc(OC)cc1)c1ccccc1` (stereo not given), the GI50 in the assay on NCI/ADR-RES was 74.1 µM (inactive); with HCT-15, more than 100 µM; in the assay on T47D, > 100 µM (inactive); in the assay with M14, > 100 µM (inactive); in the assay on SK-MEL-2, > 100 µM (inactive); in the assay with SF-539 it was > 100 µM (inactive). Besides, the GI50 in the assay on HT-29, in the assay with OVCAR-5, in the assay on EKVX, with SN12C, in the assay with MDA-MB-435 and with COLO 205 was > 100 µM (inactive) in each case. Moreover, the GI50 in the assay on IGROV-1 and in the assay on SR was > 100 µM (inactive) each time.
On to `Cc1cc(C)c2c(n1)S(=O)(=O)N(CCCN1CCN(c3cccc(Cl)c3)CC1)C(C(=O)c1ccccc1)=C2O`, for which the GI50 in the assay on NCI/ADR-RES was 20.6 µM (inactive); in the assay on HCT-15 it was 24.8 µM; in the assay with T47D, 38.8 µM (inactive); with M14 it was 25.6 µM (inactive); in the assay with SK-MEL-2, 32.4 µM (inactive); in the assay on SF-539, 40.6 µM (inactive). Also, the GI50 in the assay with HT-29 is 30.8 µM (inactive); with OVCAR-5, 45 µM (inactive); with EKVX it was 26 µM (inactive); with SN12C, 20 µM (inactive); in the assay on OVCAR-4 it was 24.7 µM (inactive); in the assay on MDA-MB-435, 27 µM (inactive). Further, the GI50 with U-251 was 37.6 µM (inactive); with COLO 205, 18.7 µM (inactive); in the assay on IGROV-1, 40.3 µM (inactive); in the assay on SR it was 17.1 µM (inactive).
In the case of `O=C(Nn1c(-c2ccccc2)nc2ccccc2c1=O)c1ccccn1`, the GI50 with NCI/ADR-RES is > 100 µM (inactive); in the assay with T47D, > 100 µM (inactive); in the assay on M14 it was > 100 µM (inactive); in the assay with HCC 2998, > 100 µM (inactive); in the assay on SF-539, 43.7 µM (inactive); with HT-29 it was 65.3 µM (inactive). The GI50 was > 100 µM (inactive) with EKVX; > 100 µM (inactive) in the assay with SN12C; > 100 µM (inactive) with OVCAR-4; > 100 µM (inactive) in the assay with MDA-MB-435; 75.7 µM (inactive) with U-251; > 100 µM (inactive) with COLO 205. The GI50 in the assay with IGROV-1 and with SR was > 100 µM (inactive) in each case.
On to `O=C(NNC(=O)c1ccccc1O)c1ccccc1O`, for which the GI50 was 0.0791 µM (active) with NCI/ADR-RES; 0.11 µM with HCT-15; 0.0625 µM (active) in the assay on T47D; 0.0785 µM (active) in the assay with M14; 0.0519 µM (active) with HCC 2998; 0.873 µM (active) in the assay with NCI-H226. The GI50 in the assay with SF-539 was 0.033 µM (active); in the assay with HT-29 it was 6.71 µM (inactive); with OVCAR-5, 0.5 µM (active); in the assay with EKVX, 1.17 µM (inactive); in the assay on SN12C, 0.0792 µM (active); in the assay with OVCAR-4, 0.0621 µM (active). Besides, the GI50 with MDA-MB-435 is < 0.01 µM (active); with U-251, 0.116 µM (active); in the assay on COLO 205, 0.355 µM (active); in the assay on IGROV-1, < 0.0255 µM (active); in the assay with SR, 0.0366 µM (active).
